Assay results: patent US8163766B2, “Beta-secretase modulators and methods of use” (Amgen Inc., priority 2005, dated 2012)

Tested on: Aβ 40 in conditioned media of cells stably expressing Amyloid Precursor Protein (APP)
Assay: BACE Cell-Based Assay (Aβ40 in conditioned medium, sandwich ELISA)
Conditions: 24 hours of incubation with the test compounds, Aβ 40 by sandwich ELISA, read-out: IC50 values in the cell-based assay (inhibition of Aβ 40)
Outline: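 IC50 derived from Aβ40 reduction in supernatants, quantified by europium time-resolved fluorescence ELISA with pAb40/biotin-6E10 antibodies incubated at 4°C. Cells stably expressing APP received compound for 24 h, ten concentrations from 100 μM or 10 μM top, final DMSO 0.1%.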

Row | SMILES | IC50
1 | CC1(C)C[C@H](NC[C@@H](O)[C@H](Cc2ccccc2)NC(=O)c2cc(-c3ccccn3)c(=O)n(C3CCCC3)c2)c2cc(Br)ccc2N1 [Example 482, N-((1S,2R)-3-(((4S)-6-bromo-2,2-dimethyl-1,2,3,4-tetrahydro-4-quinolinyl)amino)-2-hydroxy-1-(phenylmethyl)propyl)-1′-cyclopentyl-2′-oxo-1′,2′-dihydro-2,3′-bipyridine-5′-carboxamide] | ≤ 5 µM
2 | CCCOC[C@H](NC(=O)c1cc(-c2ccccn2)c(=O)n(C2CCCC2)c1)[C@H](O)CN[C@H]1CC2(CCC2)Oc2ccc(CC)cc21 [Example 483, 1′-cyclopentyl-N-((1S,2R)-3-(((4S)-6-ethyl-3,4-dihydrospiro[chromene-2,1′-cyclobutan]-4-yl)amino)-2-hydroxy-1-((propyloxy)methyl)propyl)-2′-oxo-1′,2′-dihydro-2,3′-bipyridine-5′-carboxamide] | ≤ 5 µM
3 | CCc1ccc2c(c1)[C@@H](NC[C@@H](O)[C@H](Cc1ccccc1)NC(=O)[C@H]1CN(C(=O)N3CCCCC3)CCO1)CC(C)(C)O2 [Example 484, (2R)-N-((1S,2R)-3-(((4S)-6-ethyl-2,2-dimethyl-3,4-dihydro-2H-chromen-4-yl)amino)-2-hydroxy-1-(phenylmethyl)propyl)-4-(1-piperidinylcarbonyl)-2-morpholinecarboxamide] | ≤ 5 µM
4 | CCc1ccc2c(c1)[C@@H](NC[C@@H](O)[C@H](Cc1ccccc1)NC(=O)[C@@H]1CN(C(=O)N3CCCCC3)CCO1)CC(C)(C)O2 [Example 485, (2S)-N-((1S,2R)-3-(((4S)-6-ethyl-2,2-dimethyl-3,4-dihydro-2H-chromen-4-yl)amino)-2-hydroxy-1-(phenylmethyl)propyl)-4-(1-piperidinylcarbonyl)-2-morpholinecarboxamide] | ≤ 5 µM
5 | CC(C)(C)Cc1ccc2c(c1)[C@H](NC[C@@H](O)[C@H](Cc1ccccc1)NC(=O)c1cc(-c3ccccn3)c(=O)n(C3CCCC3)c1)CC(C)(C)N2 [Example 488, 1′-cyclopentyl-N-((1S,2R)-3-(((4R)-6-(2,2-dimethylpropyl)-2,2-dimethyl-1,2,3,4-tetrahydro-4-quinolinyl)amino)-2-hydroxy-1-(phenylmethyl)propyl)-2′-oxo-1′,2′-dihydro-2,3′-bipyridine-5′-carboxamide] | ≤ 5 µM
6 | CC(C)(C)Cc1ccc2c(c1)[C@@H](NC[C@@H](O)[C@H](Cc1ccccc1)NC(=O)c1cc(-c3ccccn3)c(=O)n(C3CCCC3)c1)CC(C)(C)N2 [Example 489, 1′-cyclopentyl-N-((1S,2R)-3-(((4S)-6-(2,2-dimethylpropyl)-2,2-dimethyl-1,2,3,4-tetrahydro-4-quinolinyl)amino)-2-hydroxy-1-(phenylmethyl)propyl)-2′-oxo-1′,2′-dihydro-2,3′-bipyridine-5′-carboxamide] | ≤ 5 µM
7 | Cc1cccc(C(=O)N2CCO[C@H](C(=O)N[C@@H](Cc3cccc(C#N)c3)[C@H](O)CN[C@H]3CC4(CCC4)Cc4ncc(C)cc43)C2)c1 [Example 490, (2S)-N-((1S,2R)-1-((3-cyanophenyl)methyl)-2-hydroxy-3-(((5′S)-3′-methyl-5′,8′-dihydro-6′H-spiro[cyclobutane-1,7′-quinolin]-5′-yl)amino)propyl)-4-((3-methylphenyl)carbonyl)-2-morpholinecarboxamide] | ≤ 5 µM
8 | Cc1cccc(C(=O)N2CCO[C@@H](C(=O)N[C@@H](Cc3cccc(C#N)c3)[C@H](O)CN[C@H]3CC4(CCC4)Cc4ncc(C)cc43)C2)c1 [Example 491, (2R)-N-((1S,2R)-1-((3-cyanophenyl)methyl)-2-hydroxy-3-(((5′S)-3′-methyl-5′,8′-dihydro-6′H-spiro[cyclobutane-1,7′-quinolin]-5′-yl)amino)propyl)-4-((3-methylphenyl)carbonyl)-2-morpholinecarboxamide] | ≤ 5 µM
9 | Cc1cccc(C(=O)N2CCO[C@H](C(=O)N[C@@H](Cc3cc(F)cc(F)c3)[C@H](O)CN[C@H]3CC4(CCC4)Cc4ncc(C)cc43)C2)c1 [Example 492, (2S)-N-((1S,2R)-1-((3,5-difluorophenyl)methyl)-2-hydroxy-3-(((5′S)-3′-methyl-5′,8′-dihydro-6′H-spiro[cyclobutane-1,7′-quinolin]-5′-yl)amino)propyl)-4-((3-methylphenyl)carbonyl)-2-morpholinecarboxamide] | ≤ 5 µM
10 | Cc1cccc(C(=O)N2CCO[C@@H](C(=O)N[C@@H](Cc3cc(F)cc(F)c3)[C@H](O)CN[C@H]3CC4(CCC4)Cc4ncc(C)cc43)C2)c1 [Example 493, (2R)-N-((1S,2R)-1-((3,5-difluorophenyl)methyl)-2-hydroxy-3-(((5′S)-3′-methyl-5′,8′-dihydro-6′H-spiro[cyclobutane-1,7′-quinolin]-5′-yl)amino)propyl)-4-((3-methylphenyl)carbonyl)-2-morpholinecarboxamide] | ≤ 5 µM
11 | Cc1cccc(C(=O)N2CCO[C@H](C(=O)N[C@@H](Cc3ccccc3)[C@H](O)CN[C@H]3CC4(CCC4)Cc4ncc(C)cc43)C2)c1 [Example 494, (2S)-N-((1S,2R)-2-hydroxy-3-(((5′S)-3′-methyl-5′,8′-dihydro-6′H-spiro[cyclobutane-1,7′-quinolin]-5′-yl)amino)-1-(phenylmethyl)propyl)-4-((3-methylphenyl)carbonyl)-2-morpholinecarboxamide] | ≤ 5 µM
12 | Cc1cccc(C(=O)N2CCO[C@@H](C(=O)N[C@@H](Cc3ccccc3)[C@H](O)CN[C@H]3CC4(CCC4)Cc4ncc(C)cc43)C2)c1 [Example 495, (2R)-N-((1S,2R)-2-hydroxy-3-(((5′S)-3′-methyl-5′,8′-dihydro-6′H-spiro[cyclobutane-1,7′-quinolin]-5′-yl)amino)-1-(phenylmethyl)propyl)-4-((3-methylphenyl)carbonyl)-2-morpholinecarboxamide] | ≤ 5 µM
13 | Cc1cccc(C(=O)N2CCO[C@H](C(=O)N[C@@H](Cc3cccc(C#N)c3)[C@H](O)CN[C@H]3CC(C)(C)Cc4ncc(C)cc43)C2)c1 [Example 496, (2S)-N-((1S,2R)-1-((3-cyanophenyl)methyl)-2-hydroxy-3-(((5S)-3,7,7-trimethyl-5,6,7,8-tetrahydro-5-quinolinyl)amino)propyl)-4-((3-methylphenyl)carbonyl)-2-morpholinecarboxamide] | ≤ 5 µM
14 | Cc1cccc(C(=O)N2CCO[C@@H](C(=O)N[C@@H](Cc3cccc(C#N)c3)[C@H](O)CN[C@H]3CC(C)(C)Cc4ncc(C)cc43)C2)c1 [Example 497, (2R)-N-((1S,2R)-1-((3-cyanophenyl)methyl)-2-hydroxy-3-(((5S)-3,7,7-trimethyl-5,6,7,8-tetrahydro-5-quinolinyl)amino)propyl)-4-((3-methylphenyl)carbonyl)-2-morpholinecarboxamide] | ≤ 5 µM
15 | Cc1cccc(C(=O)N2CCO[C@H](C(=O)N[C@@H](Cc3ccccc3)[C@H](O)CN[C@H]3CC(C)(C)Cc4ncc(C)cc43)C2)c1 [Example 498, (2S)-N-((1S,2R)-2-hydroxy-1-(phenylmethyl)-3-(((5S)-3,7,7-trimethyl-5,6,7,8-tetrahydro-5-quino-linyl)amino)propyl)-4-((3-methylphenyl)carbonyl)-2-morpholinecarboxamide] | ≤ 5 µM
16 | Cc1cccc(C(=O)N2CCO[C@@H](C(=O)N[C@@H](Cc3ccccc3)[C@H](O)CN[C@H]3CC(C)(C)Cc4ncc(C)cc43)C2)c1 [Example 499, (2R)-N-((1S,2R)-2-hydroxy-1-(phenylmethyl)-3-(((5S)-3,7,7-trimethyl-5,6,7,8-tetrahydro-5-quinolinyl)amino)propyl)-4-((3-methylphenyl)carbonyl)-2-morpholinecarboxamide] | ≤ 5 µM
17 | CCc1ccc2c(c1)[C@@H](NC[C@@H](O)[C@H](Cc1csc(C)n1)NC(=O)c1cc(-c3ccccn3)c(=O)n(C3CCCC3)c1)CC1(CCC1)O2 [Example 500, 1′-cyclopentyl-N-((1S,2R)-3-(((4S)-6-ethyl-3,4-dihydrospiro[chromene-2,1′-cyclobutan]-4-yl)amino)-2-hydroxy-1-((2-methyl-1,3-thiazol-4-yl)methyl)propyl)-2′-oxo-1′,2′-dihydro-2,3′-bipyridine-5′-carboxamide] | ≤ 5 µM
18 | CC(C)n1cc(C(=O)N[C@@H](Cc2ccccc2)[C@H](O)CN[C@H]2CC(C)(C)Cc3sc(CC(C)(C)C)cc32)cc(-c2ccccn2)c1=O [Example 501, N-((1S,2R)-3-(((4S)-2-(2,2-dimethylpropyl)-6,6-dimethyl-4,5,6,7-tetrahydro-1-benzothien-4-yl)amino)-2-hydroxy-1-(phenylmethyl)propyl)-1′-(1-methylethyl)-2′-oxo-1′,2′-dihydro-2,3′-bipyridine-5′-carboxamide] | ≤ 5 µM
19 | Cc1cnc2c(c1)[C@@H](NC[C@@H](O)[C@H](Cc1ccccc1)NC(=O)C1CCOCC1)CC1(CCC1)C2 [Example 502, N-((1S,2R)-2-hydroxy-3-(((5′S)-3′-methyl-5′,8′-dihydro-6′H-spiro[cyclobutane-1,7′-quinolin]-5′-yl)amino)-1-(phenylmethyl)propyl)tetrahydro-2H-pyran-4-carboxamide] | ≤ 5 µM
20 | Cc1cnc2c(c1)[C@@H](NC[C@@H](O)[C@H](Cc1cc(F)cc(F)c1)NC(=O)C1CCOCC1)CC(C)(C)C2 [Example 503, N-((1S,2R)-1-((3,5-difluorophenyl)methyl)-2-hydroxy-3-(((5S)-3,7,7-trimethyl-5,6,7,8-tetrahydro-5-quinolinyl)amino)propyl)tetrahydro-2H-pyran-4-carboxamide] | ≤ 5 µM
21 | Cc1cnc2c(c1)[C@@H](NC[C@@H](O)[C@H](Cc1ccccc1)NC(=O)C1CCOCC1)CC(C)(C)C2 [Example 504, N-((1S,2R)-2-hydroxy-1-(phenylmethyl)-3-(((5S)-3,7,7-trimethyl-5,6,7,8-tetrahydro-5-quinolinyl)amino)propyl)tetrahydro-2H-pyran-4-carboxamide] | ≤ 5 µM
